Measurements reported in ChEMBL document CHEMBL5584203, “Discovery of sinomenine/8-Bis(benzylthio)octanoic acid hybrids as potential anti-leukemia drug candidate via mitochondrial pathway” (Bioorg Med Chem Lett, 2024).

Key:
PANC-1 = assay: Antiproliferative activity against human PANC-1 cells by CCK8 assay; type: functional, cell-based
K562 [1] = assay: Antiproliferative activity against human K562 cells by CCK8 assay; type: functional, cell-based
A549 = assay: Antiproliferative activity against human A549 cells by CCK8 assay; type: functional, cell-based
MCF7 = assay: Antiproliferative activity against human MCF7 cells by CCK8 assay; type: functional, cell-based
MDA-MB-231 = assay: Antiproliferative activity against human MDA-MB-231 cells by CCK8 assay; type: functional, cell-based
HepG2 = assay: Antiproliferative activity against human HepG2 cells by CCK8 assay; type: functional, cell-based
[2] = Cytotoxicity against human PBMCs by CCK8 assay; type: toxicity, cell-based, PBMC
K562 [3] = assay: Induction of cell cycle arrest in human K562 cells assessed as G2 phase cells at 4.90 uM by propidium iodide staining based flow cytometry analysis (reference value: 12.80%); type: functional; conditions: dose 4.9 µM
Cell membrane [4] = assay: Induction of mitochondrial membrane potential loss in human K562 cells assessed as increase in apoptotic cells at 1.23 uM by JC-1 staining based flow cytometry analysis (reference value: 5.70); type: cell membranes
Cell membrane [5] = assay: Induction of mitochondrial membrane potential loss in human K562 cells assessed as increase in apoptotic cells at 4.90 uM by JC-1 staining based flow cytometry analysis (reference value: 5.70); type: cell membranes; conditions: dose 4.9 µM
K562 [6] = assay: Induction of apoptosis in human K562 cells assessed as late apoptotic cells at 2.45 uM by Annexin V-FITC and PI staining based flow cytometry analysis (reference value: 3.04%); type: functional
K562 [7] = assay: Induction of cell cycle arrest in human K562 cells assessed as G2 phase cells at 1.23 uM by propidium iodide staining based flow cytometry analysis (reference value: 12.80%); type: functional
K562 [8] = assay: Induction of cell cycle arrest in human K562 cells assessed as S phase cells at 2.45 uM by propidium iodide staining based flow cytometry analysis (reference value: 44.03%); type: functional
K562 [9] = assay: Induction of apoptosis in human K562 cells assessed as late apoptotic cells at 4.90 uM by Annexin V-FITC and PI staining based flow cytometry analysis (reference value: 3.04%); type: functional; conditions: dose 4.9 µM
K562 [10] = assay: Induction of apoptosis in human K562 cells assessed as early apoptotic cells at 2.45 uM by Annexin V-FITC and PI staining based flow cytometry analysis (reference value: 3.31%); type: functional
K562 [11] = assay: Induction of apoptosis in human K562 cells assessed as late apoptotic cells at 1.23 uM by Annexin V-FITC and PI staining based flow cytometry analysis (reference value: 3.04%); type: functional
K562 [12] = assay: Induction of cell cycle arrest in human K562 cells assessed as G1 phase cells at 4.90 uM by propidium iodide staining based flow cytometry analysis (reference value: 43.16%); type: functional; conditions: dose 4.9 µM
K562 [13] = assay: Induction of apoptosis in human K562 cells assessed as cell membrane rupture incubated for 48 hrs by Hoechst 33,258 staining based fluorescence microscopy analysis; type: functional; conditions: dose 1.23-4.9 µM
K562 [14] = assay: Induction of cell cycle arrest in human K562 cells assessed as G2 phase cells at 2.45 uM by propidium iodide staining based flow cytometry analysis (reference value: 12.80%); type: functional
K562 [15] = assay: Induction of apoptosis in human K562 cells assessed as chromatin condensation incubated for 48 hrs by Hoechst 33,258 staining based fluorescence microscopy analysis; type: functional, cell-based; conditions: dose 1.23-4.9 µM
K562 [16] = assay: Induction of cell cycle arrest in human K562 cells assessed as G1 phase cells at 2.45 uM by propidium iodide staining based flow cytometry analysis (reference value: 43.16%); type: functional
K562 [17] = assay: Induction of cell cycle arrest in human K562 cells assessed as G1 phase cells at 1.23 uM by propidium iodide staining based flow cytometry analysis (reference value: 43.16%); type: functional
K562 [18] = assay: Induction of cell cycle arrest in human K562 cells assessed as S phase cells at 4.90 uM by propidium iodide staining based flow cytometry analysis (reference value: 44.03%); type: functional; conditions: dose 4.9 µM
K562 [19] = assay: Induction of apoptosis in human K562 cells assessed as early apoptotic cells at 1.23 uM by Annexin V-FITC and PI staining based flow cytometry analysis (reference value: 3.31%); type: functional
Cell membrane [20] = assay: Induction of mitochondrial membrane potential loss in human K562 cells assessed as increase in apoptotic cells at 2.45 uM by JC-1 staining based flow cytometry analysis (reference value: 5.70); type: cell membranes
K562 [21] = assay: Induction of apoptosis in human K562 cells assessed as early apoptotic cells at 4.90 uM by Annexin V-FITC and PI staining based flow cytometry analysis (reference value: 3.31%); type: functional; conditions: dose 4.9 µM
K562 [22] = assay: Induction of cell cycle arrest in human K562 cells assessed as S phase cells at 1.23 uM by propidium iodide staining based flow cytometry analysis (reference value: 44.03%); type: functional

| Structure (SMILES) | IC50 (PANC-1) | IC50 (K562 [1]) | IC50 (A549) | IC50 (MCF7) | IC50 (MDA-MB-231) | IC50 (HepG2) | IC50 [2] | other results |
| --- | --- | --- | --- | --- | --- | --- | --- | --- |
| O=c1[nH]cc(F)c(=O)[nH]1 [FLUOROURACIL] | 48.2 µM | 5.18 µM | 34.9 µM | > 50 µM | > 50 µM |  |  |  |
| COC1=CC2[C@@H]3Cc4c(Br)cc(OC)c(OCCCCOC(=O)CCCCC(CCSCc5ccccc5)SCc5ccccc5)c4[C@]2(CCN3C)CC1=O (stereo not given in full) | > 50 µM | 25.1 µM | > 50 µM | > 50 µM | > 50 µM | > 50 µM | > 50 µM |  |
| COC1=CC2[C@@H]3Cc4c(Cl)cc(OC)c(OCCCCCCOC(=O)CCCCC(CCSCc5ccccc5)SCc5ccccc5)c4[C@]2(CCN3C)CC1=O (stereo not given in full) | > 50 µM | 21.5 µM | > 50 µM | > 50 µM | > 50 µM | > 50 µM | > 50 µM |  |
| COC1=CC2[C@@H]3Cc4c(Cl)cc(OC)c(OCCOC(=O)CCCCC(CCSCc5ccccc5)SCc5ccccc5)c4[C@]2(CCN3C)CC1=O (stereo not given in full) | > 50 µM | 16.8 µM | > 50 µM | > 50 µM | > 50 µM | > 50 µM | > 50 µM |  |
| O=C(O)CCCCC(CCSCc1ccccc1)SCc1ccccc1 (stereo not given) [CPI 613] | > 50 µM | > 50 µM | > 50 µM | > 50 µM | > 50 µM | > 50 µM |  |  |
| COC1=CC2[C@@H]3Cc4c(Cl)cc(OC)c(OC(=O)CCCCC(CCSCc5ccccc5)SCc5ccccc5)c4[C@]2(CCN3C)CC1=O (stereo not given in full) | > 50 µM | 26 µM | > 50 µM | > 50 µM | > 50 µM | > 50 µM | > 50 µM |  |
| COC1=CC2[C@@H]3Cc4c(Br)cc(OC)c(OC(=O)CCCCC(CCSCc5ccccc5)SCc5ccccc5)c4[C@]2(CCN3C)CC1=O (stereo not given in full) | > 50 µM | 17.4 µM | > 50 µM | > 50 µM | > 50 µM | > 50 µM | > 50 µM |  |
| COC1=CC2[C@@H]3Cc4c(Br)cc(OC)c(OCCCCCCOC(=O)CCCCC(CCSCc5ccccc5)SCc5ccccc5)c4[C@]2(CCN3C)CC1=O (stereo not given in full) | > 50 µM | > 50 µM | > 50 µM | > 50 µM | > 50 µM | > 50 µM | > 50 µM |  |
| COC1=CC2[C@@H]3Cc4ccc(OC)c(OCCCCCCOC(=O)CCCCC(CCSCc5ccccc5)SCc5ccccc5)c4[C@]2(CCN3C)CC1=O (stereo not given in full) | > 50 µM | 3.02 µM | 16.2 µM | > 50 µM | > 50 µM | 28.2 µM | > 50 µM |  |
| COC1=CC2[C@@H]3Cc4c(Cl)cc(OC)c(O)c4[C@]2(CCN3C)CC1=O (stereo not given in full) | > 50 µM | 39.3 µM | > 50 µM | > 50 µM | > 50 µM | > 50 µM |  |  |
| COC1=CC2[C@@H]3Cc4c(Cl)cc(OC)c(OCCCCCOC(=O)CCCCC(CCSCc5ccccc5)SCc5ccccc5)c4[C@]2(CCN3C)CC1=O (stereo not given in full) | > 50 µM | 19.5 µM | > 50 µM | > 50 µM | > 50 µM | > 50 µM | > 50 µM |  |
| COC1=C[C@@H]2[C@@H]3Cc4ccc(OC)c(O)c4[C@]2(CCN3C)CC1=O [SINOMENINE] | > 50 µM | 37.2 µM | > 50 µM | > 50 µM | > 50 µM | > 50 µM |  |  |
| COC1=CC2[C@@H]3Cc4c(Br)cc(OC)c(O)c4[C@]2(CCN3C)CC1=O (stereo not given in full) | > 50 µM | 33 µM | > 50 µM | > 50 µM | > 50 µM | > 50 µM |  |  |
| COC1=CC2[C@@H]3Cc4c(Cl)cc(OC)c(OCCCCOC(=O)CCCCC(CCSCc5ccccc5)SCc5ccccc5)c4[C@]2(CCN3C)CC1=O (stereo not given in full) | > 50 µM | 17.8 µM | > 50 µM | > 50 µM | > 50 µM | > 50 µM | > 50 µM |  |
| COC1=CC2[C@@H]3Cc4ccc(OC)c(OCCCCOC(=O)CCCCC(CCSCc5ccccc5)SCc5ccccc5)c4[C@]2(CCN3C)CC1=O (stereo not given in full) | > 50 µM | 5.32 µM | 28.6 µM | 46.9 µM | > 50 µM | 36.6 µM | > 50 µM |  |
| COC1=CC2[C@@H]3Cc4ccc(OC)c(OC(=O)CCCCC(CCSCc5ccccc5)SCc5ccccc5)c4[C@]2(CCN3C)CC1=O (stereo not given in full) | > 50 µM | 23.4 µM | > 50 µM | > 50 µM | > 50 µM | > 50 µM | > 50 µM |  |
| COC1=CC2[C@@H]3Cc4ccc(OC)c(OCCCOC(=O)CCCCC(CCSCc5ccccc5)SCc5ccccc5)c4[C@]2(CCN3C)CC1=O (stereo not given in full) | > 50 µM | 4.16 µM | 17.7 µM | 48.4 µM | > 50 µM | 37 µM | > 50 µM |  |
| COC1=CC2[C@@H]3Cc4c(Cl)cc(OC)c(OCCCOC(=O)CCCCC(CCSCc5ccccc5)SCc5ccccc5)c4[C@]2(CCN3C)CC1=O (stereo not given in full) | > 50 µM | 27.4 µM | > 50 µM | > 50 µM | > 50 µM | > 50 µM | > 50 µM |  |
| COC1=CC2[C@@H]3Cc4c(Br)cc(OC)c(OCCCOC(=O)CCCCC(CCSCc5ccccc5)SCc5ccccc5)c4[C@]2(CCN3C)CC1=O (stereo not given in full) | > 50 µM | 24.3 µM | > 50 µM | > 50 µM | > 50 µM | > 50 µM | > 50 µM |  |
| COC1=CC2[C@@H]3Cc4c(Br)cc(OC)c(OCCCCCOC(=O)CCCCC(CCSCc5ccccc5)SCc5ccccc5)c4[C@]2(CCN3C)CC1=O (stereo not given in full) | > 50 µM | 22.5 µM | > 50 µM | > 50 µM | > 50 µM | > 50 µM | > 50 µM |  |
| COC1=CC2[C@@H]3Cc4ccc(OC)c(OCCCCCOC(=O)CCCCC(CCSCc5ccccc5)SCc5ccccc5)c4[C@]2(CCN3C)CC1=O (stereo not given in full) | > 50 µM | 2.45 µM | 23.9 µM | 45.4 µM | > 50 µM | 15.6 µM | > 50 µM | Activity (K562 [3]): 6.48%; Activity (Cell membrane [4]): 26.4%; Activity (Cell membrane [5]): 59.1%; Activity (K562 [6]): 13.66%; Activity (K562 [7]): 10.69%; Activity (K562 [8]): 38.69%; Activity (K562 [9]): 39.9%; Activity (K562 [10]): 24.33%; Activity (K562 [11]): 3.53%; Activity (K562 [12]): 60.57%; Activity (K562 [13]): Dose-Dependent Effect; Activity (K562 [14]): 3.47%; Activity (K562 [15]): Dose-Dependent Effect; Activity (K562 [16]): 54.84%; Activity (K562 [17]): 47.39%; Activity (K562 [18]): 32.95%; Activity (K562 [19]): 9.83%; Activity (Cell membrane [20]): 41.1%; Activity (K562 [21]): 25.04%; Activity (K562 [22]): 41.92% |
| COC1=CC2[C@@H]3Cc4c(Br)cc(OC)c(OCCOC(=O)CCCCC(CCSCc5ccccc5)SCc5ccccc5)c4[C@]2(CCN3C)CC1=O (stereo not given in full) | > 50 µM | 18.9 µM | > 50 µM | > 50 µM | > 50 µM | > 50 µM | > 50 µM |  |
| COC1=CC2[C@@H]3Cc4ccc(OC)c(OCCOC(=O)CCCCC(CCSCc5ccccc5)SCc5ccccc5)c4[C@]2(CCN3C)CC1=O (stereo not given in full) | > 50 µM | 158 µM | 11.6 µM | > 50 µM | > 50 µM | 47.5 µM | > 50 µM |  |
